Values of other authors in article PMC8228323, “Biodegradation of L-Valine Alkyl Ester Ibuprofenates by Bacterial Cultures” (Materials, 2021).

Key:
microorganisms = tested on: microorganisms; parameters: method as in PMID 22644530, PMID 23262323, doi:10.4314/jasem.v25i3.5, PMID 33724810, PMID 33601200; details: at the applied concentration
[1] = parameters: method as in PMID 20111784; details: CO2 released, 0 to 28 days

| Compound | Inhibition of microbial activity (microorganisms) | Degree of biodegradability [1] |
| --- | --- | --- |
| CC(C)Cc1ccc(C(C)C(=O)O)cc1 (centres unmarked) [IBU, ibuprofen] | did not inhibit the microbial activity |  |
| CCCCCCCCCCCCOS(=O)(=O)[O-].[Na+] [SDS, sodium dodecyl sulfate] |  | about 95% |
| CCCCCCCCOS(=O)(=O)[O-].CCCCOCCOC(=O)Cn1cc[n+](C)c1 [[BuOCH2CH2OCOCH2min][OctOSO3]] |  | more than 60% |
| CCCCCCCCOS(=O)(=O)[O-].CCOCCOC(=O)Cn1cc[n+](C)c1 [[EtOCH2CH2OCOCH2min][OctOSO3]] |  | 59% |
| CCCCCCCCOS(=O)(=O)[O-].CCCOCCOC(=O)Cn1cc[n+](C)c1 [[PrOCH2CH2OCOCH2min][OctOSO3]] |  | more than 60% |
